Measured values taken from the NIST ThermoML archive (doi:10.1021/acs.jced.8b00509).

Test: mn = molality of the nth substance listed, in mol/kg
Settings: 100 kPa, Liquid; for viscosity: Capillary tube (Ostwald / Ubbelohde) method; for speed of sound: Frequency=3 MHz, Single path-length method; for mass density: Vibrating tube method

C[C@H](CCC(=O)[O-])[C@H]1CC[C@H]2[C@@H]3[C@H](O)C[C@@H]4C[C@H](O)CC[C@]4(C)[C@H]3C[C@H](O)[C@]12C.[Na+] [sodium cholate] + O
Settings	mass density [kg/m3]	speed of sound [m/s]	viscosity [mPa·s]
293.15 K, m1 = 0.002	998.46	1483.6	1.004
293.15 K, m1 = 0.004	998.67	1484.3	1.007
293.15 K, m1 = 0.006	998.88	1484.8	1.011
293.15 K, m1 = 0.008	999.1	1485.3	1.016
293.15 K, m1 = 0.01	999.32	1486	1.021
293.15 K, m1 = 0.012	999.53	1486.7	1.025
293.15 K, m1 = 0.014	999.76	1487.3	1.032
293.15 K, m1 = 0.016	999.98	1487.8	1.037
293.15 K, m1 = 0.018	1000.2	1488.3	1.041
293.15 K, m1 = 0.02	1000.41	1488.8	1.044
293.15 K, m1 = 0.022	1000.63	1489	1.048
293.15 K, m1 = 0.024	1000.83	1489.6	1.051
298.15 K, m1 = 0.002	997.29	1497.5	0.893
298.15 K, m1 = 0.004	997.5	1498	0.896
298.15 K, m1 = 0.006	997.7	1498.6	0.899
298.15 K, m1 = 0.008	997.91	1499.2	0.903
298.15 K, m1 = 0.01	998.13	1499.9	0.906
298.15 K, m1 = 0.012	998.34	1500.5	0.911
298.15 K, m1 = 0.014	998.56	1501	0.918
298.15 K, m1 = 0.016	998.77	1501.6	0.922
298.15 K, m1 = 0.018	998.97	1502	0.926
298.15 K, m1 = 0.02	999.19	1502.3	0.93
298.15 K, m1 = 0.022	999.39	1502.8	0.933
298.15 K, m1 = 0.024	999.6	1503.3	0.936
303.15 K, m1 = 0.002	995.88	1509.8	0.8
303.15 K, m1 = 0.004	996.08	1510.2	0.803
303.15 K, m1 = 0.006	996.29	1510.8	0.806
303.15 K, m1 = 0.008	996.49	1511.3	0.809
303.15 K, m1 = 0.01	996.7	1511.9	0.813
303.15 K, m1 = 0.012	996.91	1512.4	0.817
303.15 K, m1 = 0.014	997.12	1512.9	0.823
303.15 K, m1 = 0.016	997.34	1513.4	0.827
303.15 K, m1 = 0.018	997.54	1513.8	0.831
303.15 K, m1 = 0.02	997.74	1514.2	0.835
303.15 K, m1 = 0.022	997.94	1514.7	0.838
303.15 K, m1 = 0.024	998.14	1515.1	0.841
308.15 K, m1 = 0.002	994.26	1520.5	0.722
308.15 K, m1 = 0.004	994.46	1520.9	0.725
308.15 K, m1 = 0.006	994.66	1521.4	0.727
308.15 K, m1 = 0.008	994.87	1521.9	0.73
308.15 K, m1 = 0.01	995.08	1522.4	0.734
308.15 K, m1 = 0.012	995.29	1522.9	0.737
308.15 K, m1 = 0.014	995.5	1523.4	0.742
308.15 K, m1 = 0.016	995.7	1523.9	0.747
308.15 K, m1 = 0.018	995.9	1524.4	0.751
308.15 K, m1 = 0.02	996.1	1524.8	0.755
308.15 K, m1 = 0.022	996.29	1525.2	0.758
308.15 K, m1 = 0.024	996.49	1525.6	0.76
313.15 K, m1 = 0.002	992.43	1529.5	0.655
313.15 K, m1 = 0.004	992.63	1529.8	0.658
313.15 K, m1 = 0.006	992.84	1530.3	0.66
313.15 K, m1 = 0.008	993.04	1530.8	0.663
313.15 K, m1 = 0.01	993.24	1531.2	0.666
313.15 K, m1 = 0.012	993.45	1531.7	0.67
313.15 K, m1 = 0.014	993.66	1532.2	0.675
313.15 K, m1 = 0.016	993.85	1532.6	0.679
313.15 K, m1 = 0.018	994.05	1533.1	0.684
313.15 K, m1 = 0.02	994.24	1533.5	0.686
313.15 K, m1 = 0.022	994.45	1533.8	0.689
313.15 K, m1 = 0.024	994.64	1534.2	0.691

C[C@H](CCC(=O)[O-])[C@H]1CC[C@H]2[C@@H]3CC[C@@H]4C[C@H](O)CC[C@]4(C)[C@H]3C[C@H](O)[C@]12C.[Na+] [sodium deoxycholate] + O
Settings	mass density [kg/m3]	speed of sound [m/s]	viscosity [mPa·s]
293.15 K, m1 = 0.001	998.38	1483.7	1.003
293.15 K, m1 = 0.002	998.49	1484.1	1.004
293.15 K, m1 = 0.003	998.58	1484.5	1.006
293.15 K, m1 = 0.004	998.67	1484.7	1.009
293.15 K, m1 = 0.005	998.75	1484.9	1.014
293.15 K, m1 = 0.006	998.83	1485.2	1.027
293.15 K, m1 = 0.007	998.92	1485.4	1.036
293.15 K, m1 = 0.008	999.01	1485.6	1.04
293.15 K, m1 = 0.009	999.11	1485.8	1.045
293.15 K, m1 = 0.01	999.21	1486	1.047
293.15 K, m1 = 0.011	999.32	1486.2	1.05
293.15 K, m1 = 0.012	999.4	1486.4	1.051
298.15 K, m1 = 0.001	997.22	1497.4	0.892
298.15 K, m1 = 0.002	997.31	1497.6	0.893
298.15 K, m1 = 0.003	997.39	1497.9	0.894
298.15 K, m1 = 0.004	997.48	1498.1	0.897
298.15 K, m1 = 0.005	997.56	1498.3	0.902
298.15 K, m1 = 0.006	997.65	1498.6	0.915
298.15 K, m1 = 0.007	997.73	1498.8	0.924
298.15 K, m1 = 0.008	997.83	1499	0.928
298.15 K, m1 = 0.009	998.01	1499.3	0.932
298.15 K, m1 = 0.01	998.11	1499.5	0.934
298.15 K, m1 = 0.011	998.2	1499.7	0.937
298.15 K, m1 = 0.012	998.2	1499.9	0.938
303.15 K, m1 = 0.001	995.81	1509.6	0.799
303.15 K, m1 = 0.002	995.91	1509.8	0.8
303.15 K, m1 = 0.003	995.98	1510	0.801
303.15 K, m1 = 0.004	996.07	1510.2	0.804
303.15 K, m1 = 0.005	996.14	1510.4	0.809
303.15 K, m1 = 0.006	996.22	1510.7	0.822
303.15 K, m1 = 0.007	996.3	1510.9	0.83
303.15 K, m1 = 0.008	996.39	1511.2	0.834
303.15 K, m1 = 0.009	996.48	1511.4	0.839
303.15 K, m1 = 0.01	996.58	1511.6	0.841
303.15 K, m1 = 0.011	996.66	1511.9	0.843
303.15 K, m1 = 0.012	996.75	1512	0.846
308.15 K, m1 = 0.001	994.18	1520.1	0.72
308.15 K, m1 = 0.002	994.27	1520.4	0.721
308.15 K, m1 = 0.003	994.35	1520.6	0.722
308.15 K, m1 = 0.004	994.44	1520.8	0.726
308.15 K, m1 = 0.005	994.52	1521.2	0.73
308.15 K, m1 = 0.006	994.59	1521.5	0.743
308.15 K, m1 = 0.007	994.68	1521.7	0.752
308.15 K, m1 = 0.008	994.77	1522	0.756
308.15 K, m1 = 0.009	994.84	1522.2	0.76
308.15 K, m1 = 0.01	994.93	1522.4	0.763
308.15 K, m1 = 0.011	995.02	1522.2	0.764
308.15 K, m1 = 0.012	995.1	1522.4	0.766
313.15 K, m1 = 0.001	992.3	1529.2	0.654
313.15 K, m1 = 0.002	992.45	1529.4	0.655
313.15 K, m1 = 0.003	992.53	1529.6	0.657
313.15 K, m1 = 0.004	992.61	1529.8	0.659
313.15 K, m1 = 0.005	992.69	1529.9	0.664
313.15 K, m1 = 0.006	992.76	1530.1	0.678
313.15 K, m1 = 0.007	992.84	1530.3	0.686
313.15 K, m1 = 0.008	992.93	1530.5	0.69
313.15 K, m1 = 0.009	993.01	1530.7	0.694
313.15 K, m1 = 0.01	993.1	1530.9	0.695
313.15 K, m1 = 0.011	993.2	1531	0.699
313.15 K, m1 = 0.012	993.28	1531.2	0.699
